Data taken from US6958342B2, “Polymorphs of N-methyl-N-(3-{3-[2-thienylcarbonyl]-pyrazol-[1,5-α]-pyrimidin-7-yl}phenyl)acetamide and compositions and methods related thereto” (Neurocrine Biosciences, Inc., priority 1999, dated 2005).

Tests used:
[1] = Approximate solubility of Form I and Form II in various solvents; format: physicochemical
Text: In addition, the lower melting point polymorph, Form II, also has significant advantages over the polymorphic mixture of Compound 1 as prepared according to known techniques. […] Form II is generally more soluble in polar and protic solvents than is Form I. Enhanced solubility of a compound will generally increase the bioavailability of that compound. When absorption of a drug is dissolution rate limited, use of the more soluble and faster dissolving form improves the rate and extent of bioavailability.

[2] = Physical (polymorphic) stability of the solid form; format: physicochemical; conditions: stability toward conversion to a different polymorphic form; compared with the polymorphic mixture of Compound 1
Text: The polymorph Form I is considered a heat stable form of Compound 1. By “heat stable” or “physically stable” is meant that the Form I is stable toward conversion to the polymorph Form II; although, it may be labile toward degradation to other compounds.
As the higher melting point polymorph, Form I has significant advantages over the polymorphic mixture of Compound 1 prepared according to known techniques. […] This, in turn, enhances the milling and compaction properties of the drug substance.

Substance: N-methyl-N-(3-{3-[2-thienylcarbonyl]-pyrazol-[1,5-α]-pyrimidin-7-yl}phenyl)acetamide [Form II]
- Solubility ([1]; Acetone): 6.873 mg/mL
- Solubility ([1]; Acetonitrile): 8.928 mg/mL
- Solubility ([1]; De-ionized water): 0.0188 mg/mL
- Solubility ([1]; Diethyl ether): 0.051 mg/mL
- Solubility ([1]; Ethanol, absolute (100%)): 1.722 mg/mL
- Solubility ([1]; Ethyl acetate): 2.16 mg/mL
- Solubility ([1]; Hexane): 0.05 mg/mL
- Solubility ([1]; Isopropanol): 0.457 mg/mL
- Solubility ([1]; Methanol): 1.915 mg/mL
- Solubility ([1]; Polyethylene Glycol 400, NF): 10.1 mg/mL
- Solubility ([1]; Tetrahydrofuran): 14.74 mg/mL
- Solubility ([1]; Toluene): 0.645 mg/mL
- Water solubility, in words ([1]; compared with Form I): superior water solubility over Form I

Substance: N-methyl-N-(3-{3-[2-thienylcarbonyl]-pyrazol-[1,5-α]-pyrimidin-7-yl}phenyl)acetamide [Form I]
- Physical stability, in words [2]: superior physical stability
- Solubility ([1]; Acetone): 4.842 mg/mL
- Solubility ([1]; Acetonitrile): 6.246 mg/mL
- Solubility ([1]; De-ionized water): 0.0083 mg/mL
- Solubility ([1]; Diethyl ether): 0.08 mg/mL
- Solubility ([1]; Ethanol, absolute (100%)): 1.426 mg/mL
- Solubility ([1]; Ethyl acetate): 1.6 mg/mL
- Solubility ([1]; Hexane): 0.041 mg/mL
- Solubility ([1]; Isopropanol): 0.441 mg/mL
- Solubility ([1]; Methanol): 1.74 mg/mL
- Solubility ([1]; Polyethylene Glycol 400, NF): 3.259 mg/mL
- Solubility ([1]; Tetrahydrofuran): 9.964 mg/mL
- Solubility ([1]; Toluene): 0.997 mg/mL
